In one assay the target is LZK (Homo sapiens (Human), UniProt O43283). Put plainly: LZK biochemical assay (TR-FRET, MKK7 phosphorylation). The gist of the method:
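Readout is the HTRF ratio (XL665/Eu) from an EDTA-containing detection mix of 0.4 nM Eu-anti-phospho-MKK7 (T275/S277) and 20 nM XL665-anti-His, incubated 16 h at 32° C. This followed a 90 min RT reaction of 10 nM LZK catalytic domain, 15 nM MKK7 and 15 μM ATP at pH 7.5.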
Background: Time-resolved FRET reads energy transfer from a long-lived donor to a nearby acceptor.

The target of the next assay is DLK (Homo sapiens (Human), UniProt Q12852). Put plainly: DLK biochemical assay (TR-FRET, MKK7 phosphorylation). In short, it runs like this:
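TR-FRET ratio (665/Eu) reports MKK7 T275/S277 phosphorylation, lowered by DLK inhibition. Reaction: 60 μM ATP, 15 nM MKK7, 10 nM DLK catalytic domain, 90 min room temperature; detection incubation 16 h, 37° C. (1536-well) or 4° C. (384-well). Final concentrations.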

SMILES strings stand for the structures.

LZK, sequence (O43283 168-409): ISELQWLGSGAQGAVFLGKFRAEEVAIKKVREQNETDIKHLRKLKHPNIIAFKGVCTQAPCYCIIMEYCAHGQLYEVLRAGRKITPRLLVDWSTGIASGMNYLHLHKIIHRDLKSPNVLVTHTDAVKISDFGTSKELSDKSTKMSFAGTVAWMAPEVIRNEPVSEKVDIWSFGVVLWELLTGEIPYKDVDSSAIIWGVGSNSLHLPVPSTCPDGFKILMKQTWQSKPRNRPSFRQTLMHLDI
DLK, sequence (Q12852 1-520): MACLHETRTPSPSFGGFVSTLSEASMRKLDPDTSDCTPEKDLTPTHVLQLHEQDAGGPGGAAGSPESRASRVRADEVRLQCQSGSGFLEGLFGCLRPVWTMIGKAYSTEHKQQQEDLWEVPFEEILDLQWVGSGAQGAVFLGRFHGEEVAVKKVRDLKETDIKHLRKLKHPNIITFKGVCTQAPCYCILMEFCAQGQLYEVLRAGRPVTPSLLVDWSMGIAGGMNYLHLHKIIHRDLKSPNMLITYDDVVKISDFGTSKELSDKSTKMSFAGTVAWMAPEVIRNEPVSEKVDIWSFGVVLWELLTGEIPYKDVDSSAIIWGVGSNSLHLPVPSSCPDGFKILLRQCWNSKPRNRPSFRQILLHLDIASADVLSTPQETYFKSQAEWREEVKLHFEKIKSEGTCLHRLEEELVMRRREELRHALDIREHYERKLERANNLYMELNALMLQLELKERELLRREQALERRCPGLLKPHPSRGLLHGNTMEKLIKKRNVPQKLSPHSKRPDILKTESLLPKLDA

In the case of `COC[C@H](NC(=O)c1cc(-c2cc(C(=O)N[C@H]3CCOC3)c3nc(N)nn3c2)cs1)c1ccc(F)cc1` [Compound 139], the IC50 (in general, the concentration needed to halve the response being measured) at LZK came to 120 nM; against DLK, 5.5 nM.

`CC[C@H](NC(=O)c1cc(-c2cc(C(=O)NC3(CO)CC3)c3nc(N)nn3c2)cs1)c1ccc(F)cc1` [Compound 140]: the IC50 at LZK turned out to be 790 nM; at DLK, 72 nM.

For `CC[C@H](NC(=O)c1cc(-c2cc(C(=O)NC(C)CF)c3nc(N)nn3c2)cs1)c1ccc(F)cc1` (stereo partly shown) [Compound 141], the IC50 on LZK was 63 nM; at DLK, 10 nM.

On to `CC[C@H](NC(=O)c1cc(-c2cc(C(=O)NC(C)(C)C)c3nc(N)nn3c2)cs1)c1ccc(F)cc1` [Compound 142], for which the IC50 at LZK was determined as 400 nM; at DLK it was 120 nM.

`CC[C@H](C)NC(=O)c1cc(-c2csc(C(=O)NC3(c4ccc(F)cc4)CCCC3)c2)cn2nc(N)nc12` [Compound 143]: the IC50 was 110 nM on LZK and 8.9 nM against DLK.

For `CC[C@H](NC(=O)c1cc(-c2cc(C(=O)NC(C)CF)c3nc(N)nn3c2)cs1)c1ccc(F)cc1` (stereo partly shown) [Compound 144-1], the IC50 came out at 42 nM against LZK and 4.6 nM at DLK.

Turning to `CC[C@H](C)NC(=O)c1cc(-c2csc(C(=O)N[C@H]3CCOc4ccccc43)c2)cn2nc(N)nc12` [Compound 144-3], the results for the IC50 against LZK and against DLK were 43 nM and 7.2 nM, respectively.

In the case of `CC[C@H](NC(=O)c1cc(-c2csc(C(=O)NCc3ccc(F)cc3)c2)cn2nc(N)nc12)C(F)(F)F` [Compound 144-4], the half-maximal inhibitory concentration (IC50) was 2500 nM against LZK and 800 nM at DLK.

For the compound `CC[C@H](NC(=O)c1cc(-c2csc(C(=O)N[C@@H](C)c3ccc(F)cc3)c2)cn2nc(N)nc12)C(F)(F)F` [Compound 144-5], the IC50 worked out at 2600 nM at LZK and 630 nM against DLK.

Regarding `CC[C@@H](C)NC(=O)c1cc(-c2csc(C(=O)N[C@@H](CC)c3ccc(F)cc3)c2)cn2nc(N)nc12` [Compound 144], the IC50 on LZK amounted to 770 nM; against DLK, 38 nM.

For `CC(C)NC(=O)c1cc(-c2csc(C(=O)NCc3ccc(F)cc3)c2)cc2nc(N)nn12` [Compound 145], the results for the IC50 at LZK and against DLK were 124 nM and 30.5 nM, respectively.

Turning to `CC(C)NC(=O)c1cc(-c2csc(C(=O)N[C@@H](C)c3ccccc3)c2)cc2nc(N)nn12` [Compound 146], the IC50 against LZK is 71 nM; against DLK it was 12 nM.

Turning to `CC(C)NC(=O)c1cc(-c2csc(C(=O)N[C@@H](C)c3ccc(F)cc3)c2)cc2nc(N)nn12` [Compound 147], the IC50 at LZK came out at 100 nM; against DLK, 21 nM.

As to `COc1cccc(CNC(=O)c2cc(-c3cc(C(=O)NC(C)C)n4nc(N)nc4c3)cs2)c1` [Compound 148], the figures for the IC50 at LZK and against DLK were 230 nM and 64 nM, respectively.

For the compound `CC(C)NC(=O)c1cc(-c2csc(C(=O)NCc3ccccc3)c2)cc2nc(N)nn12` [Compound 149], the IC50 is 110 nM against LZK and 28 nM at DLK.

`CC(C)NC(=O)c1cc(-c2csc(C(=O)NC3CCCCC3)c2)cc2nc(N)nn12` [Compound 150]: the values for the IC50 on LZK and at DLK were 490 nM and 46 nM, respectively.

Take `CC(C)NC(=O)c1cc(-c2csc(C(=O)NCc3nc4ccccc4o3)c2)cc2nc(N)nn12` [Compound 151]: the IC50 stood at 100 nM against LZK and 36 nM at DLK.

Regarding `CC[C@H](NC(=O)c1cc(-c2cc(C(=O)NC(C)C)n3nc(N)nc3c2)cs1)c1ccccc1` [Compound 152], the figures for the IC50 on LZK and at DLK were 57 nM and 4.15 nM, respectively.

`CC(C)NC(=O)c1cc(-c2csc(C(=O)N[C@H](C)c3ccc(F)cc3)c2)cc2nc(N)nn12` [Compound 153]: the IC50 amounted to 280 nM against LZK and 32 nM against DLK.

As to `CC[C@H](NC(=O)c1cc(-c2cc(C(=O)NC(C)C)n3nc(N)nc3c2)cs1)c1ccc(F)cc1` [Compound 154], the IC50 was 89 nM against LZK and 4.9 nM against DLK.

As to `CC[C@H](NC(=O)c1cc(-c2cc(C(=O)N[C@@H](C)CC)n3nc(N)nc3c2)cs1)c1ccc(F)cc1` [Compound 156], the IC50 was 79 nM against LZK and 7.5 nM against DLK.

In the case of `CCNC(=O)c1cc(-c2csc(C(=O)NCc3ccc(F)cc3)c2)cc2nc(N)nn12` [Compound 157], the concentration for half-maximal inhibition (IC50) at LZK was found to be 870 nM; at DLK, 180 nM.

Regarding `CCNC(=O)c1cc(-c2csc(C(=O)N[C@@H](C)c3ccc(F)cc3)c2)cc2nc(N)nn12` [Compound 158], the values for the IC50 on LZK and on DLK were 560 nM and 33 nM, respectively.

Consider `CC[C@H](C)NC(=O)c1cc(-c2csc(C(=O)N[C@@H](COC)c3ccc(F)cc3)c2)cc2nc(N)nn12` [Compound 159], for which the 50% inhibitory concentration (IC50) was found to be 16 nM on LZK and 2.9 nM against DLK.

On to `CC[C@H](C)NC(=O)c1cc(-c2csc(C(=O)N[C@@H](C)c3ccc(F)cc3)c2)cc2nc(N)nn12` [Compound 160], for which the concentration for half-maximal inhibition (IC50) was 52 nM at LZK and 6.3 nM at DLK.

As to `CC[C@H](C)NC(=O)c1cc(-c2csc(C(=O)NCc3ccc(F)cc3)c2)cc2nc(N)nn12` [Compound 161], the IC50 was 43 nM against LZK and 21 nM against DLK.

Turning to `CC[C@H](NC(=O)c1cc(-c2cc(C(=O)N[C@H]3CCOC3)n3nc(N)nc3c2)cs1)c1ccc(F)cc1` [Compound 162], the values for the IC50 against LZK and at DLK were 77 nM and 3.5 nM, respectively.

With `Nc1nc2ccc(-c3csc(C(=O)NCc4ccccc4)c3)cn2n1` [Compound 168], the IC50 came to 4600 nM on LZK and 380 nM against DLK.

On to `Nc1nc2ccc(-c3csc(C(=O)NC4CCCCC4)c3)cn2n1` [Compound 169], for which the half-maximal inhibitory concentration (IC50) was greater than 30000 nM at LZK and 1100 nM on DLK.

Consider `Nc1nc2ccc(-c3csc(C(=O)NC4CCCC4)c3)cn2n1` [Compound 170], for which the IC50 is greater than 30000 nM on LZK and 520 nM against DLK.

Take `Nc1nc2ccc(-c3csc(C(=O)NC4CCC4)c3)cn2n1` [Compound 171]: the IC50 on LZK is greater than 30000 nM; at DLK it was 970 nM.

With `Nc1nc2ccc(-c3csc(C(=O)NC4CC4)c3)cn2n1` [Compound 172], the figures for the IC50 at LZK and on DLK were greater than 30000 nM and 2600 nM, respectively.

As to `CC(C)NC(=O)c1cc(-c2ccc3nc(N)nn3c2)cs1` [Compound 173], the figures for the IC50 against LZK and against DLK were 19000 nM and 2150 nM, respectively.

As to `Nc1nc2ccc(-c3csc(C(=O)NC4CCCCCC4)c3)cn2n1` [Compound 174], the IC50 at LZK is greater than 30000 nM; against DLK it was 440 nM.

Turning to `CN(C(=O)c1cc(-c2ccc3nc(N)nn3c2)cs1)C1CCCCC1` [Compound 175], the IC50 on LZK is greater than 30000 nM; at DLK, 9550 nM.

For `Nc1nc2ccc(-c3csc(C(=O)NC4CCCC(C(F)(F)F)C4)c3)cn2n1` (stereo not shown) [Compound 176], the IC50 was greater than 30000 nM against LZK and 1000 nM on DLK.

As for `CCO[C@H]1CC[C@H](NC(=O)c2cc(-c3ccc4nc(N)nn4c3)cs2)CC1` [Compound 177], the IC50 is greater than 30000 nM against LZK and 1600 nM against DLK.

Consider `CCN1CCCC(NC(=O)c2cc(-c3ccc4nc(N)nn4c3)cs2)C1` (stereo not shown) [Compound 180], for which the IC50 is greater than 30000 nM at LZK and 2000 nM at DLK.

For `CN1CCCC(NC(=O)c2cc(-c3ccc4nc(N)nn4c3)cs2)C1` (stereo not shown) [Compound 181], the IC50 is greater than 30000 nM on LZK and 3500 nM against DLK.

For the compound `COc1cccc(CNC(=O)c2cc(-c3ccc4nc(N)nn4c3)cs2)c1` [Compound 182], the figures for the half-inhibitory concentration (IC50) against LZK and on DLK were 25000 nM and 133 nM, respectively.

As for `Nc1nc2ccc(-c3csc(C(=O)NC4CCCOC4)c3)cn2n1` (stereo not shown) [Compound 184], the IC50 worked out at 24000 nM against LZK and 1950 nM at DLK.

In the case of `Nc1nc2ccc(-c3csc(C(=O)NC4CCOCC4)c3)cn2n1` [Compound 185], the concentration for half-maximal inhibition (IC50) was found to be 26000 nM against LZK and 1700 nM against DLK.

On to `Nc1nc2ccc(-c3csc(C(=O)NCC4CCCCC4)c3)cn2n1` [Compound 187], for which the IC50 on LZK was greater than 30000 nM; at DLK, 710 nM.

For `Nc1nc2ccc(-c3csc(C(=O)NCC4CCOCC4)c3)cn2n1` [Compound 188], the concentration for half-maximal inhibition (IC50) is greater than 30000 nM against LZK and 2000 nM against DLK.

For the compound `Nc1nc2ccc(-c3csc(C(=O)NCC4CCCC4)c3)cn2n1` [Compound 190], the IC50 was greater than 30000 nM on LZK and 530 nM on DLK.

In the case of `CCOc1cccc(CNC(=O)c2cc(-c3ccc4nc(N)nn4c3)cs2)c1` [Compound 191], the IC50 against LZK was greater than 30000 nM; against DLK, 320 nM.

Consider `Nc1nc2ccc(-c3csc(C(=O)NCc4cccc(OC(F)(F)F)c4)c3)cn2n1` [Compound 192], for which the results for the IC50 against LZK and on DLK were greater than 30000 nM and 460 nM, respectively.

On to `Nc1nc2ccc(-c3csc(C(=O)NCc4cccc(Cl)c4)c3)cn2n1` [Compound 193], for which the IC50 on LZK was determined as 5000 nM; against DLK it was 615 nM.

As for `Cc1cccc(CNC(=O)c2cc(-c3ccc4nc(N)nn4c3)cs2)c1` [Compound 194], the IC50 against LZK is greater than 30000 nM; against DLK, 670 nM.

As to `Nc1nc2ccc(-c3csc(C(=O)NCc4cccc(OC(F)F)c4)c3)cn2n1` [Compound 195], the values for the IC50 against LZK and on DLK were 8800 nM and 480 nM, respectively.

Turning to `CC(C)Oc1cccc(CNC(=O)c2cc(-c3ccc4nc(N)nn4c3)cs2)c1` [Compound 196], the values for the IC50 against LZK and against DLK were 9490 nM and 350 nM, respectively.

As for `Nc1nc2ccc(-c3csc(C(=O)NCC4CCCOC4)c3)cn2n1` (stereo not shown) [Compound 197], the values for the IC50 on LZK and against DLK were greater than 30000 nM and 1600 nM, respectively.

For `CN1C2CCC1CC(NC(=O)c1cc(-c3ccc4nc(N)nn4c3)cs1)C2` (stereo not shown) [Compound 201], the IC50 was greater than 30000 nM at LZK and 2800 nM at DLK.

The record behind these values is patent publication US20230382904A1, “SUBSTITUTED 4-([1,2,4]TRIAZOLO[1,5-a]PYRIDIN-6-YL)THIOPHENE-2-CARBOXAMIDE DERIVATIVES AND USE THEREOF” (The Johns Hopkins University, priority 2020, published 2023).
